We go through three compounds from EP2963029A1, “Cyclic derivatives of epoxyisoprostanoids as therapeutic agents” (ETH Zurich, priority 2014, dated 2016).

Each structure is given as a SMILES string. Read-outs that look alike come from different tables or passages of the source.

One test relates to naïve CD4 T cells. The test is described as follows: Co-culture of compound-pretreated splenic dendritic cells with naive CD4 T cells; Th1/Th2 polarization by intracellular FACS staining. Format: cell-based, C57BL/6 mice.
The subject of the next test is Nrf2 target genes. Put plainly: qPCR expression of Nrf2 target genes in pretreated, R837-stimulated bone marrow-derived dendritic cells. Format: cell-based, mouse. An excerpt:
(§1) • Figure 1: Treatment with cyclo-EC (9) licenses dendritic cells to polarize niave CD4 T cells towards the Th2 subset. Naïve transgenic splenic CD4 T cells were co-cultured together with splenic dendritic cells that had been pre-treated either with cyclo-EC (9) (cEC) or the respective solvent control. CD4 T cells were then stimulated with the cognate antigen for 4 days. […] Shown is the percentage of IL-4 producing Th2 and IFNγ producing Th1 cells after treatment with cEC or solvent DMSO. Differences between cEC and DMSO treatments are significant as indicated by (*) using unpaired, two-tailed t tests. […] Wild type bone marrow-derived dendritic cells were pretreated with cyclo-EC (9) (cEC) or solvent control for 75 minutes before stimulation with the TLR7 (toll-like receptor 7) ligand R837 (Syed, T. A., Exp.Opin.Pharmacother. 2001, 2, 877) for an additional 3 h. Cells were then lysed, mRNA was purified, reverse transcribed and expression of Nrf2 ([…]) target genes as well as the indicated chemokine genes was determined by qPCR. Expression levels were normalized to G6PDH (glucose 6-phosphate dehydrogenase) expression. […] Cytokines in the supernatant were quantified with ELISA. • Figure 4. […] Cytokines in the supernatant were quantified with ELISA. • Figure 5. […]

Test [1] concerns IL-6. Put plainly: IL-6 secretion by bone marrow-derived dendritic cells stimulated with TLR7 agonist R837 (ELISA). Format: cell-based, mouse. The following applies: BMDCs treated 60 minutes, then R837 for 18 h (Figures 3-5).
From the text: as §1, with “qPCR.” for “qPCR. Expression levels were normalized to G6PDH (glucose 6-phosphate dehydrogenase) expression.”
(§2) Bone marrow cells from tibia and femur were isolated ex vivo and differentiated in vitro into bone marrow derived dendritic cells (BMDC) by cultivation in the presence of 2 ng/ml carrier free recombinant mouse GM-CSF (BioLegend, 576308) in RPMI 1640 medium (GE Healthcare, E15-039) supplemented with L-glutamine (Lonza-Cambrex BioWhittaker, BE17-605E), HEPES Buffer (Lonza-Cambrex BioWhittaker, BE17-737E), peniciline/ streptomycine (Gibco Life Technologies 15140-122) and fetal bovine serum (Gibco Life Sciences 10270-106). […] Cells were then harvested, counted and seeded into 96-well flat bottom plates at 10^5 cells/well. […] Cytokine concentrations in supernatant were quantified by sandwich ELISA using the following antibody pairs: IL-6 (504502 and 504602) from BioLegend and IL-12 (14-7125-85 and 13-7123-85) from eBioscience. […] Optical density was measured using a Spectra MAX 190 device by Bucher biotec. […]

Test [2] has as its system IL-12. The test is described as follows: IL-12 secretion by bone marrow-derived dendritic cells stimulated with TLR7 agonist R837 (ELISA). In kind it is cell-based, mouse. The following applies: BMDCs treated 60 minutes, then R837 for 18 h (Figures 3-5).
From the text: as §1, with “qPCR.” for “qPCR. Expression levels were normalized to G6PDH (glucose 6-phosphate dehydrogenase) expression.”
as §2
For orientation: ELISA stands for enzyme-linked immunosorbent assay.

In test [3] the test system is IL-6. Conditions: bone-marrow derived dendritic cells, Egger et al., Angew. Chem. Int. Ed. 2013, cited from earlier work.
Test [4] has as its system IL-12. The following applies: bone-marrow derived dendritic cells, Egger et al., Angew. Chem. Int. Ed. 2013, cited from earlier work.
Test [5] has as its system Pro-inflammatory chemokine genes: CCL1, 2, 3 and 4. Put plainly: qPCR expression of pro-inflammatory chemokine genes in pretreated, R837-stimulated bone marrow-derived dendritic cells. Format: cell-based, mouse. Conditions: pretreated 75 minutes, then R837 for 3 h; normalized to G6PDH (Figure 2).
From the text: as §1

With `CCCCC/C=C\C[C@H]1C=CC(=O)/C1=C/[C@H]1O[C@@H]1CCCC(=O)O` [EC (8), 4-((2R,3R)-3-((E)-((S)-2-((Z)-Oct-2-en-1-yl)-5-oxocyclopent-3-en-1-ylidene)-methyl)oxiran-2-yl)butanoic acid], the “polarization of naïve CD4 T cells towards the Th2 subset” value with naïve CD4 T cells (earlier experiments, splenic dendritic cells) is “able to license splenic dendritic cells to polarize naïve CD4 T cells towards the Th2 subset”. Also, the “expression of downstream targets of Nrf2” value in the test on Nrf2 target genes (earlier experiments, quantitative PCR) is recorded as “able to drive expression of downstream targets of Nrf2”. For the same compound, in the test with IL-6 [1], the “inhibition of IL-6 secretion” value is listed as “potent inhibitor of toll-like receptor 7 (TLR) mediated secretion of pro-inflammatory cytokines”. The “inhibition of IL-12 secretion” value in the test with IL-12 [2] is on record as “potent inhibitor of toll-like receptor 7 (TLR) mediated secretion of pro-inflammatory cytokines”. The “secretion of pro-inflammatory cytokine IL-6” value in the test on IL-6 [3] is on record as “more potent than EI (19)”; with IL-6 [3] (listed as 8), “reduced secretion”. For the same compound, the “secretion of pro-inflammatory cytokine IL-12” value is on record as “more potent than EI (19)” with IL-12 [4] and “reduced secretion” with IL-12 [4] (listed as 8).

With `CCCCC/C=C\C[C@@H]1/C(=C\[C@H]2O[C@@H]2CCCC(=O)O)C(=O)C[C@H]1O` [EI (19), 5,6-epoxyisoprostane E2], the “secretion of pro-inflammatory cytokine IL-6” value in the test with IL-6 [3] was “reduced secretion”. Further, in the test on IL-12 [4], the “secretion of pro-inflammatory cytokine IL-12” value is “reduced secretion”.

Take `CCCCC/C=C\C[C@H]1C=CC(=O)/C1=C/[C@@H](O)[C@@H]1CCCC(=O)O1` [cyclo-EC (9), (S)-6-((R,E)-1-Hydroxy-2-((S)-2-((Z)-oct-2-en-1-yl)-5-oxocyclopent-3-en-1-liydene)-ethyl)tetrahydro-2H-pyran-2-one]: the “percentage of IFNγ producing Th1 cells” value in the test with naïve CD4 T cells (dendritic cells treated with 500nM for 60 minutes, co-culture 4 days with 10 nM gp61, vs solvent DMSO, p = 0.0161 (Figure 1)) is reported as “interferes with high dose antigen induced polarization towards the Th1 subset”. For the same compound, the “percentage of IL-4 producing Th2 cells” value in the test on naïve CD4 T cells (dendritic cells treated with 500nM for 60 minutes, co-culture 4 days with 10 nM gp61, vs solvent DMSO, p = 0.039 (Figure 1)) is “licenses the dendritic cells to promote polarization of the Th2 subset”. In the test on Nrf2 target genes (pretreated 75 minutes, then R837 for 3 h, normalized to G6PDH (Figure 2)), the “expression of Nrf2 target genes (HO-1, NQO1)” value is on record as “induces expression of Nrf2 target genes”. The “pro-inflammatory chemokine expression (CCL1, 2, 3 and 4)” value in test [5] was “inhibits pro-inflammatory chemokine expression”. In addition, the “inhibition of IL-6 secretion” value in the test on IL-6 [1] is “most potent inhibitor of IL-6 and IL-12 secretion”; in the test with IL-6 [1] (listed as cEC), “attenuates secretion of pro-inflammatory cytokines at lower concentrations than EC”. Also, the “inhibition of IL-12 secretion” value was “most potent inhibitor of IL-6 and IL-12 secretion” with IL-12 [2]; “attenuates secretion of pro-inflammatory cytokines at lower concentrations than EC” with IL-12 [2] (listed as cEC).
